Experimental data from patent US11857635B2, “Linker compound, polyethylene glycol-linker conjugate and derivative thereof and polyethylene glycol-linker-drug conjugate” (JENKEM TECHNOLOGY CO., LTD. (TIANJIN), priority 2017, dated 2024).

Test system: HCT116 tumor
Experiment: Tumor growth inhibition in HCT116 tumor heterotopic transplantation mouse model
Assay type: in vivo
Details: HCT116 subcutaneous tumor in mice, FIG. 6
Method: The experiment was carried out to detect a tumor growth inhibition effect of a drug on the HCT116 tumor heterotopic transplantation mouse model.
G2: positive drug adriamycin (commercially available); and
G3: 4arm PEG-L5-Dox (prepared in Example 22).
An original culture solution was removed by suction after HCT116 cells (commercially available) were received, and 10 mL of fresh culture solution was added. The cells were collected and passaged when 90% of the cells were converged. After the culture solution was removed, 10 ml of EDTA/PBS solution was added and placed at room temperature for 5 minutes, and then the EDTA/PBS solution was removed by suction. […] The cells was counted with a counting plate and diluted with DMEM containing 10% FBS. […]
The cell suspension was changed in advance when it was detected that 80% of the cells were converged on the inoculation day of the cells. […] The cells were counted with a counting plate and diluted with PBS to a concentration of 2*10^7 cells/mL, and then the cells were placed on ice until inoculation.
HCT116 cells were subcutaneously inoculated in a right front axilla of a mouse. […] Tumor volumes were measured twice a week after inoculation, and when an average tumor volume reached 100 to 200 mm^3, 18 mice with similar tumor sizes were selected and randomly divided into 3 groups with 6 mice in each group. […]

Structure (SMILES): COc1cccc2c1C(=O)c1c(O)c3c(c(O)c1C2=O)C[C@@](O)(C(=O)CO)C[C@@H]3O[C@H]1C[C@H](N)[C@H](O)[C@H](C)O1 [adriamycin]
- Anti-tumor effect: obvious anti-tumor effects
